How the values were obtained:
BRD2 BD1 = target: T1, BRD2 BD1 (Homo sapiens, UniProt P25440); assay: Binding assay, BRD2 BD1 to acetylated histone H4 Peptide-Biotin (EPIgeneous Binding Domain Kit A); conditions: for inhibition at 0.3 µM: read-out: Binding inhibition percentage BRD2 BD1
T1 construct: BRD2 BD1, BRD3 BD1 and BRD4 BD1 (Cisbio); purchased Cisbio
Experimental: (§1) BRD2 BD1, BRD3 BD1 and BRD4 BD1 (Cisbio), [Lys(Ac)5/8/12/16]-Histone H4(1-25)-GSGSK (Biotin) (hereinafter referred to as “Peptide-Biotin,” AnaSpec), and EPIgeneous (registered trademark) Binding Domain Kit A (Cisbio) were used to carry out an assay. That is to say, per well, 4 μL of BRD2 BD1, BRD3 BD1 or BRD4 BD1, which was adjusted to 20 nmol/L with Diluent buffer; 4 μL of 25 nmol/L Peptide-Biotin; 2 μL of Dilution buffer (Cisbio) containing dimethyl sulfoxide (DMSO) or a test compound that was serially diluted with DMSO; 5 μL of 2.5 nmol/L Streptavidin-d2; and 5 μL of Anti-Gst-Eu+^3+ Cryptate Conjugate 50-fold diluted with Detection Buffer were added to a 384-well plate (Corning).
(§2) The obtained mixture was left at rest at room temperature for 20 hours, and thereafter, the fluoresence intensity at 665 nm and 620 nm was measured using Envision plate reader (Perkin Elmer), so that the inhibition percentage (%) of the test compound against the binding of a bromodomain in a bromodomain-containing protein to Peptide-Biotin was calculated. Binding inhibition percentage (%)=[1−{(fluorescence intensity at 665 nm of test compound−added well)/(fluorescence intensity at 620 nm of test compound−added well)}/{(fluorescence intensity at 665 nm of DMSO−added well)/(fluorescence intensity at 665 nm of DMSO−added well)}]×100
(§3) Moreover, using Graphpad prism 5 (GraphPad software), 50% inhibitory concentration [IC50 (nmol/L)] was calculated according to a non-linear regression analysis (log (inhibitor) vs. response—Variable slope (four parameters)).
(§4) Regarding other test compounds, each compound was diluted with DMSO to a final concentration of 300 nmol/L by the same method as that described above, and the binding inhibition percentage (%) of each test compound at 300 nmol/L against the binding of bromodomain in a bromodomain-containing protein to acetylated histone was calculated.

BRD3 BD2 = target: T2, BRD3 BD2 (Homo sapiens, UniProt Q15059); assay: Binding assay, BRD3 BD2 to acetylated histone H4 Peptide-Biotin (EPIgeneous Binding Domain Kit B); conditions: for inhibition at 0.3 µM: read-out: Binding inhibition percentage BRD3 BD2
T2 construct: BRD2 BD2, BRD3 BD2 and BRD4 BD2 (Cisbio); purchased Cisbio
Experimental: (§5) Moreover, BRD2 BD2, BRD3 BD2 and BRD4 BD2 (Cisbio), Peptide-Biotin (AnaSpec), and EPIgeneous (registered trademark) Binding Domain Kit B (Cisbio) were used to carry out an assay. That is, per well, 4 μL of BRD2 BD2, BRD3 BD2 or BRD4 BD2, which was adjusted to 20 nmol/L with Diluent buffer; 4 μL of 250 nmol/L Peptide-Biotin; 2 μL of Dilution buffer (Cisbio) containing DMSO or a test compound that was serially diluted with DMSO; 5 μL of 25 nmol/L Streptavidin-XL665; 5 μL of Anti-Gst-Eu+^3+ Cryptate Conjugate 50-fold diluted with Detection Buffer were added to a 384-well plate (Corning).
as §2, §3, §4

BRD4 BD2 = target: T3, BRD4 BD2 (Homo sapiens, UniProt O60885); assay: Binding assay, BRD4 BD2 to acetylated histone H4 Peptide-Biotin (EPIgeneous Binding Domain Kit B); conditions: for inhibition at 0.3 µM: read-out: Binding inhibition percentage BRD4 BD2
T3 construct: BRD2 BD2, BRD3 BD2 and BRD4 BD2 (Cisbio); purchased Cisbio
Experimental: as §5, §2, §3, §4

BRD3 BD1 = target: T4, BRD3 BD1 (Homo sapiens, UniProt Q15059); assay: Binding assay, BRD3 BD1 to acetylated histone H4 Peptide-Biotin (EPIgeneous Binding Domain Kit A); conditions: for inhibition at 0.3 µM: read-out: Binding inhibition percentage BRD3 BD1
T4 construct: BRD2 BD1, BRD3 BD1 and BRD4 BD1 (Cisbio); purchased Cisbio
Experimental: as §1, §2, §3, §4

BRD2 BD2 = target: T5, BRD2 BD2 (Homo sapiens, UniProt P25440); assay: Binding assay, BRD2 BD2 to acetylated histone H4 Peptide-Biotin (EPIgeneous Binding Domain Kit B); conditions: for inhibition at 0.3 µM: read-out: Binding inhibition percentage BRD2 BD2
T5 construct: BRD2 BD2, BRD3 BD2 and BRD4 BD2 (Cisbio); purchased Cisbio
Experimental: as §5, §2, §3, §4

BRD4 BD1 = target: T6, BRD4 BD1 (Homo sapiens, UniProt O60885); assay: Binding assay, BRD4 BD1 to acetylated histone H4 Peptide-Biotin (EPIgeneous Binding Domain Kit A); conditions: for inhibition at 0.3 µM: read-out: Binding inhibition percentage BRD4 BD1
T6 construct: BRD2 BD1, BRD3 BD1 and BRD4 BD1 (Cisbio); purchased Cisbio
Experimental: as §1, §2, §3, §4

T5 sequence (P25440 344-453 limits assumed): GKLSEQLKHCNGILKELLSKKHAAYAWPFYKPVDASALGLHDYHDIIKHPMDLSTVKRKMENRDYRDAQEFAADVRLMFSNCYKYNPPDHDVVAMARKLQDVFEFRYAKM
T2 sequence (Q15059 306-415 limits assumed): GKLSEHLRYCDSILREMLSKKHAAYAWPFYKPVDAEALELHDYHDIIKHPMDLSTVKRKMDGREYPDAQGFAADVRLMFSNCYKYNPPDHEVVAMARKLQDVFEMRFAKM
T1 sequence (P25440 74-180 limits assumed): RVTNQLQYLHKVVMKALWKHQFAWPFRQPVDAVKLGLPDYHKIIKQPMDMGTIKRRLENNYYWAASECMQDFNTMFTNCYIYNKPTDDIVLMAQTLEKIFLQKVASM
T4 sequence (Q15059 34-140 limits assumed): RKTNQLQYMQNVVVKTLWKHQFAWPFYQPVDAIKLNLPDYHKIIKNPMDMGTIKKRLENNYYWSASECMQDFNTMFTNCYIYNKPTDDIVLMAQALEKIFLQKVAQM

inhibition at 0.3 µM (BRD2 BD1; test compound at 300 nmol/L)	inhibition at 0.3 µM (BRD3 BD2; test compound at 300 nmol/L)	inhibition at 0.3 µM (BRD4 BD2; test compound at 300 nmol/L)	inhibition at 0.3 µM (BRD3 BD1; test compound at 300 nmol/L)	inhibition at 0.3 µM (BRD2 BD2; test compound at 300 nmol/L)	inhibition at 0.3 µM (BRD4 BD1; test compound at 300 nmol/L)	further results	Structure (SMILES)
–	–	–	–	–	–	Binding inhibition percentage BRD2 BD1 (BRD2 BD1; test compound at 300 nmol/L): 94%; Binding inhibition percentage BRD3 BD2 (BRD3 BD2; test compound at 300 nmol/L): 91%; Binding inhibition percentage BRD4 BD2 (BRD4 BD2; test compound at 300 nmol/L): 89%; Binding inhibition percentage BRD3 BD1 (BRD3 BD1; test compound at 300 nmol/L): 94%; Binding inhibition percentage BRD2 BD2 (BRD2 BD2; test compound at 300 nmol/L): 90%; Binding inhibition percentage BRD4 BD1 (BRD4 BD1; test compound at 300 nmol/L): 95%	CCn1c(=O)cc(C2CC2)c2cc(-n3c(=O)cc(C)n3-c3ccccc3)ccc21 [Example 282a, 4-Cyclopropyl-1-ethyl-6-(3-methyl-5-oxo-2-phenyl-2,5-dihydro-1H-pyrazol-1-y 1)quinolin-2(1H)-one]
88%	91%	88%	93%	87%	94%	–	CCn1c(=O)cc(N2CCOCC2)c2cc(-n3c(-c4ccccc4)cn(CCN4CCOCC4)c3=O)ccc21 [Example 260]
68%	92%	87%	87%	86%	90%	–	CCn1c(=O)cc(C2CC2)c2cc(-c3nc(C)[nH]c3-c3ccccc3)ccc21 [Example 283, 4-cyclopropyl-1-ethyl-6-(2-methyl-5-phenyl-1H-imidazol-4-yl)quinolin-2(1H)-one]
94%	90%	87%	93%	88%	94%	–	CCn1c(=O)cc(C2CCN(C)CC2)c2cc(C(=O)N(C)c3ccc(C)c(Cl)c3)ccc21 [Example 293, N-(3-chloro-4-methylphenyl)-1-ethyl-N-methyl-4-(1-methylpiperidin-4-yl)-2-oxo-1,2-dihydroquinoline-6-carboxamide]
–	–	–	–	–	–	IC50 (BRD2 BD1): 45 nM; IC50 (BRD3 BD2): 59 nM; IC50 (BRD4 BD2): 22 nM; IC50 (BRD3 BD1): 15 nM; IC50 (BRD2 BD2): 86 nM; IC50 (BRD4 BD1): 6 nM	CCn1c(=O)cc(C2CCN(C(C)=O)CC2)c2cc(C(=O)N(C)c3ccc(C)cc3)ccc21 [Example 290, 4-(1-acetylpiperidin-4-yl)-1-ethyl-N-methyl-N-(4-methylphenyl)-2-oxo-1,2-dihydroquinoline-6-carboxamide]
91%	93%	89%	94%	89%	95%	–	CCn1c(=O)cc(C2CCC(O)CC2)c2cc(C(=O)N(C)c3ccc(Cl)cc3)ccc21 (stereo not drawn) [Example 286, N-(4-chlorophenyl)-1-ethyl-4-(4-hydroxycyclohexyl)-N-methyl-2-oxo-1,2-dihydroquinoline-6-carboxamide]
83%	92%	89%	93%	88%	93%	–	CCn1c(=O)cc(C2CC2)c2cc(-c3nccnc3-c3ccccc3)ccc21 [Example 284, 4-cyclopropyl-1-ethyl-6-(3-phenylpyrazin-2-yl)quinolin-2(1H)-one]
81%	80%	83%	92%	71%	94%	–	CCn1c(=O)cc(C2CCN(C(=O)C(C)C)CC2)c2cc(C(=O)N(C)c3ccc(C)cc3)ccc21 [Example 183, 1-ethyl-N-methyl-N-(4-methylphenyl)-4-(1-(2-methylpropanoyl)piperidin-4-yl)-2-oxo-1,2-dihydroquinoline-6-carboxamide]
52%	91%	86%	85%	89%	85%	–	CCn1c(=O)cc(C2CC2)c2cc(N(C)C(=O)c3ccccc3)ccc21 [Example 2, N-(4-cyclopropyl-1-ethyl-2-oxo-1,2-dihydroquinolin-6-yl)-N-methylbenzamide]
